For this assay, the target named is T1, mutant BKCa channel (G803D/N806K) (Rattus norvegicus, UniProt Q62976, G803D/N806K).
T1 construct: expressed in transfected cells
The assay is described as follows: Cell-based TI+ fluorescence (FluxOR) assay in AD-293 cells. To be noted: for TI+-fluorescence enhancement (initial RFU increase): 10 μM, n=4. The method, then:
AD-293 cells (Lee et al., 2013), as a modified HEK293 cell for expressing a mutant BKCa channel, were placed in DMEM (Dulbecco's Modified Eagle's medium) supplemented with 10% fetal bovine serum and 1 mg/ml geneticin (Gibco) as an antibiotic. The cells were cultured under a humidified condition of 5% CO2 and 37° C.
AD-293 cells stably expressing the mutant BKCa channel (G803D/N806K) were used for cell-based assays (Lee et al., 2013). Approximately 20,000 cells/well were inoculated on a black-wall assay plate (Corning Incorporated) coated with poly-D-lysine (Sigma-Aldrich), which is 96-well clear-bottom. A FluxOR™ […] (Invitrogen) was used for initial screening of compound libraries, and for further assay of candidate compounds. Experiments were performed according to the manufacturer's following guidelines: growth medium was replaced with 80 μl/well of loading buffer containing FluxOR™ fluorescent dye, and incubation was carried out for 1 hour under a light-free condition. After the incubation, the loading buffer was replaced with 100 μl/well of assay buffer containing various concentrations of compounds of interest, followed by incubation for 20 minutes to 30 minutes. DMSO (1%) was vehicle and the vehicle was used for all test compounds. CTBIC (Cormemis et al. 2005; Lee et al. 2012), previously identified as an activator of the BKCa channel, was used as a positive control. For fluorescence measurements, synergy TM H1 hybrid multi-mode microplate reader (BioTek Instrument Inc., Winnoski, Vt.) and Cen5 software was used in initial screening. For additional assays, Flexstation 3 multi-mode microplate reader (Molecular Devices) and SoftMax®Pro software were used, respectively. A fluorescence signal was obtained at an excitation wavelength of 485 nm and an emission wavelength of 528 nm. Membrane polarization was induced by a stimulus buffer containing thallium ion. The fluorescence signal was measured under two conditions: every 10 seconds for 2 minutes before treating the stimulation buffer and then every 10 seconds for 3 minutes after addition of stimulation buffer for synergy H1, and every 2 seconds for 20 seconds before stimulus buffer treatment, and then every 2 seconds for 160 seconds after adding the stimulus buffer for FlexStation 3.
A fluorescence signal change was measured based on a relative fluorescence unit (RFU) or F/F0 where F0 is ta minimum fluorescence value of each fluorescence trace. To quantitatively compare activation effects of kurarinone and its derivatives, an initial fluorescence increase was calculated using first three points after treatment with the stimulation buffer, and a linear slope was predicted using OriginPro 9.1 (OriginLab Corp., Northampton, Mass.).

SMILES strings stand for the structures.

T1 sequence (Q62976 whole entry G803D/N806K): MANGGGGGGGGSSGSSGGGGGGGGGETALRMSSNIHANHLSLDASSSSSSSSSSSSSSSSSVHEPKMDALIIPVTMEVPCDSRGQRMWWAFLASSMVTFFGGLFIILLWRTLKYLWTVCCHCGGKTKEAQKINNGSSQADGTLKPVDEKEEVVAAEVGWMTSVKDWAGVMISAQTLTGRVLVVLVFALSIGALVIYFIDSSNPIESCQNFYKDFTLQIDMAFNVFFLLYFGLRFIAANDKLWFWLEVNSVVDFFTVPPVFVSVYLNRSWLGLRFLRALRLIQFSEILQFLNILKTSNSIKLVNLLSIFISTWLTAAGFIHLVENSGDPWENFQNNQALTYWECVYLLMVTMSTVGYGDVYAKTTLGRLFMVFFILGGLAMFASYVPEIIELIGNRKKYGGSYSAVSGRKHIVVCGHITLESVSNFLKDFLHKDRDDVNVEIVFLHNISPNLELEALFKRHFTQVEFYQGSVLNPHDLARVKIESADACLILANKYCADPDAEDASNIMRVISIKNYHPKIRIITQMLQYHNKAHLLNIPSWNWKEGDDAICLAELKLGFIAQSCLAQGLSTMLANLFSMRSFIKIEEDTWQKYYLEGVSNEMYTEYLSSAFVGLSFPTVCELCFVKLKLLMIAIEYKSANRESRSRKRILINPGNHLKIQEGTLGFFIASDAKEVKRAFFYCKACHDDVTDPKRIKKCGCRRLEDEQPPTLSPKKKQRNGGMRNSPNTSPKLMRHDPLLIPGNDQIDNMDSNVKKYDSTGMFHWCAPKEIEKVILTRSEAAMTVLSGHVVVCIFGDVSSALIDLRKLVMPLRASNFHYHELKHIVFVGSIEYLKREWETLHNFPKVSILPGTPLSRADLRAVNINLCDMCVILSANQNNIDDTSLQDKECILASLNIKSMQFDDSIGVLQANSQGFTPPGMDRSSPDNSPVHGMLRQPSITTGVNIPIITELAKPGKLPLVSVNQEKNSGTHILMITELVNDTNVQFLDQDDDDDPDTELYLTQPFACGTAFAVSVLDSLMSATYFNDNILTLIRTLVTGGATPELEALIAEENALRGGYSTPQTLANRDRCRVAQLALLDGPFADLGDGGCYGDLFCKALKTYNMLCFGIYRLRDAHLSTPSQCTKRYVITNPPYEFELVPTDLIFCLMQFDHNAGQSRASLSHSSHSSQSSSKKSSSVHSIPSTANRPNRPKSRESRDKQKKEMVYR

On to `C=C(C)[C@H](CCC(C)(C)O)Cc1c(O)cc(OC)c2c1O[C@H](c1ccc(O)cc1O)CC2=O` [kurarinol, reference compound], for which the “TI+-fluorescence enhancement (initial RFU increase)” value is “weaker fluorescence effects”.

For `CC(C)=CCc1c(O)cc(O)c2c1O[C@H](c1ccc(O)cc1O)CC2=O` [leachianone G], the “TI+-fluorescence enhancement (initial RFU increase)” value is “strong fluorescence increase”.

As to `O=C1C[C@@H](c2ccc(O)cc2)Oc2cc(O)cc(O)c21` [naringenin], the “TI+-fluorescence enhancement (initial RFU increase)” value is recorded as “strong fluorescence increase”.

With `CC(C)(O)[C@H]1O[C@H]2CC[C@@]3(C)[C@@](O)(CC[C@H]4Cc5c([nH]c6ccccc56)[C@@]43C)C2=CC1=O` [pacilin, reference compound], the “block of kurarinone-induced fluorescence enhancement” value (co-treatment of 1 μM blocker with kurarinone (5 μM)) is “completely blocked”.

(Values after patent US11517556B2, “Composition for BKCa channel activation” (GWANGJU INSTITUTE OF SCIENCE AND TECHNOLOGY, priority 2016, dated 2022).)
